Source: patent US20230257385A1, “SALT AND SOLID FORMS OF TABERNANTHALOG” (priority 2021, published 2023)

Key:
[1] = assay type: physicochemical; settings: salt screen, Experiment 2
Description: Tabernanthalog (native) (50 mg, 1 wt) was charged to a solution of the relevant counter ion (1.0 mol equivalence of counter ion) in ethanol (5.0 vol, 250 μl). The mixtures were warmed to 85° C. and small aliquots of water were added until dissolution occurred (Table 212 for additional charges of solvent). The solutions were cooled and allowed to stand undisturbed under sub-ambient conditions overnight (Table 211). […] Products were isolated via centrifugation. The corresponding pellets were sub-sampled and analyzed wet by XRPD; after which, they were dried at 40° C. under reduced pressure over 20 h and reanalyzed by XRPD. […] Once the crystallization experiments were completed, salt formation was confirmed by ^1H NMR, XRPD, DSC and TGA.

[2] = Heat-up/cool down (HUCD) crystallization of the monofumarate salt (Experiment Reference 11); assay type: physicochemical; settings: for XRPD (oven dried): form of product from HUCD crystallization of tabernanthalog fumarate Sample Reference 1 (Pattern #1), solvents per sample as in E1; for Observations (t = 0 @ T = 20° C.): input tabernanthalog fumarate Sample Reference 1 (Pattern #1), Solvent A/B: 11-A acetone/water, 11-B acetonitrile/water, 11-C butanol/water, 11-D tBME/methanol, 11-E DCM/methanol, 11-F ethanol/water, 11-G methyl acetate/water/methanol, 11-H 2-propanol/water, 11-1 methanol, 11-J MEK/water, 11-K 2-MeTHF/methanol, 11-L THF/water, 11-M toluene/methanol, 11-N water, 11-O dioxane/water, 11-P CPME/methan
Description: Separate portions of the tabernanthalog monofumarate salt (Pattern #1, Sample Reference 1, ca 75 mg, 1.0 wt.) were charged to separate vessels. The appropriate solvents (750 μl, 10.0 vol, refer to Table 106) were charged to the relevant vessels and subsequent charges of the appropriate co-solvent were made to accomplish dissolution at reflux. The solutions were cooled to 18 to 23° C. and allowed to stand undisturbed, until crystallization was judged complete. After this time the products were isolated by centrifugation, washed with recycled maturation solvent, dried under reduced pressure at 40° C. and analyzed by XRPD for evidence of alternative crystalline forms.

[3] = Targeted solubility of Tabernanthalog (native) in common solvents (Example 8, Experiment 1); assay type: physicochemical
Description: The solutions were observed after cooling to determine if crystallization occurred on standing at room temperature.
To portions of tabernanthalog (native) (50 mg, 1 wt), were added 5 vol aliquots of the relevant solvent (Table 198). Observations were made at 20° C., 40° C. and reflux and the mixtures were cooled to 20° C. Contingent upon these findings, an additional 5 vol aliquot of the relevant solvent was added and the process was repeated until 20 vol of solvent was added in total.

## COc1ccc2c3c([nH]c2c1)CCN(C)CC3.O=C(O)C[C@H](O)C(=O)O [Tabernanthalog · Malate]
[1]
  Discrete melt (DSC)?: ✓
  Flat baseline (DSC)?: ✓
  Flat baseline pre-melt (TGA)?: ✓
  Unique XRPD?: ✓

## COc1ccc2c3c([nH]c2c1)CCN(C)CC3.O=C(O)/C=C/C(=O)O [Sample 11-P]
[2]
  XRPD (oven dried): Pattern #5
  Observations (t = 0 @ T = 20° C.): suspension

## COc1ccc2c3c([nH]c2c1)CCN(C)CC3.Cc1ccc(S(=O)(=O)O)cc1 [Tabernanthalog · Tosylate]
[1]
  Discrete melt (DSC)?: ✓
  Flat baseline (DSC)?: ✓
  Flat baseline pre-melt (TGA)?: ✓
  Unique XRPD?: ✓

## COc1ccc2c3c([nH]c2c1)CCN(C)CC3.O=C(O)CC(O)(CC(=O)O)C(=O)O [Tabernanthalog · Citrate]
[1]
  Unique XRPD?: v. Disordered

## COc1ccc2c3c([nH]c2c1)CCN(C)CC3.O=C(O)/C=C/C(=O)O [Sample 11-N]
[2]
  XRPD (oven dried): Pattern #6a
  Observations (t = 0 @ T = 20° C.): suspension

## COc1ccc2c3c([nH]c2c1)CCN(C)CC3.O=C(O)/C=C/C(=O)O [Sample 11-H]
[2]
  XRPD (oven dried): Pattern #6a
  Observations (t = 0 @ T = 20° C.): cloudy

## COc1ccc2c3c([nH]c2c1)CCN(C)CC3.O=P(O)(O)O [Tabernanthalog · Phosphate]
[1]
  Discrete melt (DSC)?: ✓
  Flat baseline (DSC)?: ✓
  Unique XRPD?: Disordered

## COc1ccc2c3c([nH]c2c1)CCN(C)CC3.O=C(O)CCCCC(=O)O [Tabernanthalog · Adipate]
[1]
  Discrete melt (DSC)?: ✓
  Flat baseline (DSC)?: ✓
  Unique XRPD?: ✓

## COc1ccc2c3c([nH]c2c1)CCN(C)CC3.O=C(O)/C=C/C(=O)O [Sample 11-Q]
[2]
  XRPD (oven dried): Pattern #5
  Observations (t = 0 @ T = 20° C.): solution

## COc1ccc2c3c([nH]c2c1)CCN(C)CC3.O=C(O)/C=C/C(=O)O [Sample 11-G]
[2]
  XRPD (oven dried): Pattern #1
  Observations (t = 0 @ T = 20° C.): suspension

## COc1ccc2c3c([nH]c2c1)CCN(C)CC3.O=C(O)/C=C/C(=O)O [Sample 11-E]
[2]
  XRPD (oven dried): Pattern #6b
  Observations (t = 0 @ T = 20° C.): suspension

## COc1ccc2c3c([nH]c2c1)CCN(C)CC3.O=C(O)/C=C/C(=O)O [Sample 11-F]
[2]
  XRPD (oven dried): Pattern #6a
  Observations (t = 0 @ T = 20° C.): suspension

## COc1ccc2c3c([nH]c2c1)CCN(C)CC3.O=C(O)/C=C/C(=O)O [Sample 11-J]
[2]
  XRPD (oven dried): Pattern #6a
  Observations (t = 0 @ T = 20° C.): suspension

## COc1ccc2c3c([nH]c2c1)CCN(C)CC3.O=C(O)/C=C/C(=O)O [Sample 11-1]
[2]
  XRPD (oven dried): Pattern #6b
  Observations (t = 0 @ T = 20° C.): suspension

## COc1ccc2c3c([nH]c2c1)CCN(C)CC3.O=C(O)C=CC(=O)O [Tabernanthalog · Maleate]
[1]
  Unique XRPD?: Disordered

## COc1ccc2c3c([nH]c2c1)CCN(C)CC3 [Tabernanthalog · Sorbate]
[1]
  Discrete melt (DSC)?: ✓
  Flat baseline (DSC)?: ✓
  Flat baseline pre-melt (TGA)?: ✓
  Unique XRPD?: ✓

## COc1ccc2c3c([nH]c2c1)CCN(C)CC3.O=C(O)/C=C/C(=O)O [Sample 11-B]
[2]
  XRPD (oven dried): Pattern #6a
  Observations (t = 0 @ T = 20° C.): cloudy

## COc1ccc2c3c([nH]c2c1)CCN(C)CC3.O=C(O)/C=C/C(=O)O [Sample 11-M]
[2]
  XRPD (oven dried): Pattern #6b
  Observations (t = 0 @ T = 20° C.): suspension

## COc1ccc2c3c([nH]c2c1)CCN(C)CC3.O=C(O)/C=C/C(=O)O [Sample 11-K]
[2]
  XRPD (oven dried): Pattern #5
  Observations (t = 0 @ T = 20° C.): suspension

## COc1ccc2c3c([nH]c2c1)CCN(C)CC3 [Tabernanthalog (native), 8-Methoxy-3-methyl-2,4,5,6-tetrahydro-1H-azepino[4,5-b]indole]
[3]; 2-Methyl THF, 5 vol
  Solid on cooling: Yes
  Solution at reflux: ✓
[3]; 2-Propanol, 5 vol
  Solid on cooling: Yes
  Solution at reflux: ✓
[3]; 19 common solvents
  solubility in common solvents at 20° C.: freely soluble in most common solvents investigated at 20° C., apart from tBME, heptane and water
[3]; 19 common solvents, various volumes
  solubility in common solvents at reflux: soluble in 16 solvents at reflux
[3]; Acetone, 5 vol
  Solid on cooling: Yes
  Solution at reflux: ✓
[3]; Acetonitrile, 10 vol
  Solid on cooling: Yes
  Solution at reflux: ✓
[3]; Chlorobenzene, 5 vol
  Solid on cooling: Yes
  Solution at reflux: ✓
[3]; Dichloromethane, 5 vol
  Solid on cooling: Yes
  Solution at reflux: ✓
[3]; Ethanol, 5 vol
  Solid on cooling: Yes
  Solution at reflux: ✓
[3]; Ethyl acetate, 10 vol
  Solid on cooling: Yes
  Solution at reflux: ✓
[3]; Ethyl formate, 10 vol
  Solid on cooling: Yes
  Solution at reflux: ✓
[3]; Isopropyl acetate, 15 vol
  Solid on cooling: Yes
  Solution at reflux: ✓
[3]; Methanol, 5 vol
  Solid on cooling: Yes
  Solution at reflux: ✓
[3]; Methyl acetate, 10 vol
  Solid on cooling: Yes
  Solution at reflux: ✓
[3]; Methylethyl ketone, 5 vol
  Solid on cooling: Yes
  Solution at reflux: ✓
[3]; Nitromethane, 5 vol
  Solid on cooling: Yes
  Solution at reflux: ✓
[3]; Tetrahydrofuran, 5 vol
  Solid on cooling: Yes
  Solution at reflux: ✓
[3]; Toluene, 15 vol
  Solid on cooling: Yes
  Solution at reflux: ✓

## COc1ccc2c3c([nH]c2c1)CCN(C)CC3.O=C(O)/C=C/C(=O)O [Sample 11-L]
[2]
  XRPD (oven dried): Pattern #6a
  Observations (t = 0 @ T = 20° C.): solution

## COc1ccc2c3c([nH]c2c1)CCN(C)CC3.O=C(O)/C=C/C(=O)O [Sample 11-C]
[2]
  XRPD (oven dried): Pattern #6a
  Observations (t = 0 @ T = 20° C.): suspension

## COc1ccc2c3c([nH]c2c1)CCN(C)CC3.O=C(O)[C@@H](O)[C@H](O)[C@H](O)[C@@H](O)C(=O)O [Tabernanthalog · Galactarate]
[1]
  Flat baseline pre-melt (TGA)?: ✓
  Unique XRPD?: v. Disordered

## COc1ccc2c3c([nH]c2c1)CCN(C)CC3.O=S(=O)(O)CCS(=O)(=O)O [Tabernanthalog · Edisylate]
[1]
  Unique XRPD?: Disordered

## COc1ccc2c3c([nH]c2c1)CCN(C)CC3.O=C[C@H](O)[C@@H](O)[C@H](O)[C@H](O)C(=O)O [Tabernanthalog · Glucuronate]
[1]
  Discrete melt (DSC)?: ✓
  Flat baseline (DSC)?: ✓
  Flat baseline pre-melt (TGA)?: ✓
  Unique XRPD?: ✓

## COc1ccc2c3c([nH]c2c1)CCN(C)CC3.O=C(O)/C=C/C(=O)O [Sample 11-O]
[2]
  XRPD (oven dried): Pattern #6a
  Observations (t = 0 @ T = 20° C.): suspension

## COc1ccc2c3c([nH]c2c1)CCN(C)CC3.O=C(O)/C=C/C(=O)O [Sample 11-D]
[2]
  XRPD (oven dried): Pattern #5
  Observations (t = 0 @ T = 20° C.): cloudy

## COc1ccc2c3c([nH]c2c1)CCN(C)CC3.O=S(=O)(O)O [Tabernanthalog · Sulfate]
[1]
  Unique XRPD?: Amorphous

## COc1ccc2c3c([nH]c2c1)CCN(C)CC3.O=C(O)/C=C/C(=O)O [Sample 11-A]
[2]
  XRPD (oven dried): Pattern #6a
  Observations (t = 0 @ T = 20° C.): suspension
